In US8871753B2, “Macrocyclic compounds and their use as kinase inhibitors” (Incyte Corporation, priority 2008, dated 2014):
Counter-ions that a name gives are not always drawn. Like-named read-outs stand apart in the source and are kept apart here.

Key:
Type in all cases: biochemical
[1] = biological target: T1, human JAK1 (a.a. 837-1142) (Homo sapiens, UniProt P23458); experiment: In vitro JAK kinase assay (HTRF, phosphorylation of a biotinylated peptide), JAK1; conditions: read-out: JAK1 IC50
T1 construct: human JAK1 (a.a. 837-1142); His tag (N); made in house; host or cells: insect cells (baculovirus)
T1 sequence (P23458 849-1154): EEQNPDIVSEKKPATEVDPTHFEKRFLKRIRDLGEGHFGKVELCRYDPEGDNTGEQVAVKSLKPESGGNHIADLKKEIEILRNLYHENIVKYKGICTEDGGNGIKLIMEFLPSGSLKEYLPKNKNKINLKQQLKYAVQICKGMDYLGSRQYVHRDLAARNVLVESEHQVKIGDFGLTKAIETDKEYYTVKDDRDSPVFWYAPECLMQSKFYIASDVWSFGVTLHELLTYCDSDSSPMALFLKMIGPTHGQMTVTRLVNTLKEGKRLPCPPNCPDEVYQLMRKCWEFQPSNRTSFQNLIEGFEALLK
Procedure, shortened: (§1)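 Phosphorylation of a biotinylated peptide by the JAK kinase domain, detected by HTRF with Eu-Py20 and SA-APC. ATP was 90 μM for JAK1, 30 μM for JAK2 and 3 μM for JAK3. Reactions ran 1 h at room temperature and were stopped with EDTA, followed by 40 min antibody binding.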

[2] = biological target: T2, Recombinant Human Anaplastic Lymphoma Kinase (Homo sapiens, UniProt Q9UM73); experiment: ALK HTRF kinase assay
T2 construct: purchased Invitrogen, Carlsbad, Calif
T2 sequence (Q9UM73 19-1620): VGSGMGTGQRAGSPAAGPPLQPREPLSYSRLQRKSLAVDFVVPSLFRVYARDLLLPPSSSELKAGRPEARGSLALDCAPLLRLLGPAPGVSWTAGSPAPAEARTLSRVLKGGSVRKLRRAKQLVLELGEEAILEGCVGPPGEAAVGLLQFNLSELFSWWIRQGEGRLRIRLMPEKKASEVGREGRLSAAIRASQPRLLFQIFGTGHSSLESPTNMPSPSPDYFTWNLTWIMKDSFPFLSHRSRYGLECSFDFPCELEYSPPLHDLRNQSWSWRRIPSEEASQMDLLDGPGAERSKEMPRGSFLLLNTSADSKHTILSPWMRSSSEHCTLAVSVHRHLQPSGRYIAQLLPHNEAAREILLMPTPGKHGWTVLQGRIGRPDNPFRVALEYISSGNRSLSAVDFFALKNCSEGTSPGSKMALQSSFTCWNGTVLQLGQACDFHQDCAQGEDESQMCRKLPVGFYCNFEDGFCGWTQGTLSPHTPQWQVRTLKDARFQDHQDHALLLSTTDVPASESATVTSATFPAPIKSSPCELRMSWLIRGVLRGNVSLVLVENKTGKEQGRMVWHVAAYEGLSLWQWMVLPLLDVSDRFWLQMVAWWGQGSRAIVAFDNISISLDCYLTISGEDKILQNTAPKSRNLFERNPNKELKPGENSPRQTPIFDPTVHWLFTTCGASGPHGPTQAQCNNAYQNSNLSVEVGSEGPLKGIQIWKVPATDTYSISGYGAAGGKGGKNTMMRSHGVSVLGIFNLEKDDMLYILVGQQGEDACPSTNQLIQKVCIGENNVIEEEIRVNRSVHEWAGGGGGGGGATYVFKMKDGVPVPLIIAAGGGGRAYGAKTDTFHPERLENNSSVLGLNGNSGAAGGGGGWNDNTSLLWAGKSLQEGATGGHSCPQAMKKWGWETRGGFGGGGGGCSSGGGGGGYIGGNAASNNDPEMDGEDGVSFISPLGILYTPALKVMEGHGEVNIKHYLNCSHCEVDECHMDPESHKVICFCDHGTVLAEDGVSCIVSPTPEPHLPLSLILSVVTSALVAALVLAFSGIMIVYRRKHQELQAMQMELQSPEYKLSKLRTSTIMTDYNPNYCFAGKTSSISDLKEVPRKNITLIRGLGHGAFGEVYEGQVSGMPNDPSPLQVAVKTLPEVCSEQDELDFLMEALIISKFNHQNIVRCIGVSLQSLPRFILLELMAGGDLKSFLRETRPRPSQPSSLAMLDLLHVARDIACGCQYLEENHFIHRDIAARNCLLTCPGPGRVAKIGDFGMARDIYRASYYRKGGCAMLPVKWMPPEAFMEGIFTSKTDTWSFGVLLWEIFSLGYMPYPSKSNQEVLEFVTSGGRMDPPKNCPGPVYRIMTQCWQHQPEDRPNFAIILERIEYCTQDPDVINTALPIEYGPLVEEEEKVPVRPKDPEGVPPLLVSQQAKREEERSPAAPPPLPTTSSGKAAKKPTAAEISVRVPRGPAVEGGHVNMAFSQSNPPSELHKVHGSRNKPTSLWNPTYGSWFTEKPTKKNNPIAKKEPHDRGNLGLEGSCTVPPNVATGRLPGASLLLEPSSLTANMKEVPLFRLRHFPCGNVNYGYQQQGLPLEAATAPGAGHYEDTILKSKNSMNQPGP
Procedure, shortened: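 IC50 was obtained from a logistic fit of signal versus log inhibitor concentration, using pre- and post-transition baselines and a Hill slope. The signal reported tyrosine phosphorylation of a biotinylated peptide by recombinant human kinase, detected as Eu-to-APC energy transfer.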

[3] = biological target: T3, human JAK2 (a.a. 828-1132) (Homo sapiens, UniProt O60674); experiment: In vitro JAK kinase assay (HTRF, phosphorylation of a biotinylated peptide), JAK2
T3 construct: JAK2 (a.a. 828-1132); His tag (N); made in house; host or cells: insect cells (baculovirus)
T3 sequence (O60674 828-1132): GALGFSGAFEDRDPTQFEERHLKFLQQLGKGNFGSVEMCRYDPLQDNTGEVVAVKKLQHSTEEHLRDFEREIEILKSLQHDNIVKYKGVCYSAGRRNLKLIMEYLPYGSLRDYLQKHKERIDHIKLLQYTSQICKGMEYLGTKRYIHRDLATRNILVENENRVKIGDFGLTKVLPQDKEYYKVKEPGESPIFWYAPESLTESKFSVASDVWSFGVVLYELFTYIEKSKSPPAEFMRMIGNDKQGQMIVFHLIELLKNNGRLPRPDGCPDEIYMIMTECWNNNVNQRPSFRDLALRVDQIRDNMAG
Procedure, shortened: as §1

TYK2 = TYK2 (Homo sapiens, UniProt P29597); experiment: TYK2 kinase inhibition (Table A1)
Sequence of TYK2 (P29597 whole entry): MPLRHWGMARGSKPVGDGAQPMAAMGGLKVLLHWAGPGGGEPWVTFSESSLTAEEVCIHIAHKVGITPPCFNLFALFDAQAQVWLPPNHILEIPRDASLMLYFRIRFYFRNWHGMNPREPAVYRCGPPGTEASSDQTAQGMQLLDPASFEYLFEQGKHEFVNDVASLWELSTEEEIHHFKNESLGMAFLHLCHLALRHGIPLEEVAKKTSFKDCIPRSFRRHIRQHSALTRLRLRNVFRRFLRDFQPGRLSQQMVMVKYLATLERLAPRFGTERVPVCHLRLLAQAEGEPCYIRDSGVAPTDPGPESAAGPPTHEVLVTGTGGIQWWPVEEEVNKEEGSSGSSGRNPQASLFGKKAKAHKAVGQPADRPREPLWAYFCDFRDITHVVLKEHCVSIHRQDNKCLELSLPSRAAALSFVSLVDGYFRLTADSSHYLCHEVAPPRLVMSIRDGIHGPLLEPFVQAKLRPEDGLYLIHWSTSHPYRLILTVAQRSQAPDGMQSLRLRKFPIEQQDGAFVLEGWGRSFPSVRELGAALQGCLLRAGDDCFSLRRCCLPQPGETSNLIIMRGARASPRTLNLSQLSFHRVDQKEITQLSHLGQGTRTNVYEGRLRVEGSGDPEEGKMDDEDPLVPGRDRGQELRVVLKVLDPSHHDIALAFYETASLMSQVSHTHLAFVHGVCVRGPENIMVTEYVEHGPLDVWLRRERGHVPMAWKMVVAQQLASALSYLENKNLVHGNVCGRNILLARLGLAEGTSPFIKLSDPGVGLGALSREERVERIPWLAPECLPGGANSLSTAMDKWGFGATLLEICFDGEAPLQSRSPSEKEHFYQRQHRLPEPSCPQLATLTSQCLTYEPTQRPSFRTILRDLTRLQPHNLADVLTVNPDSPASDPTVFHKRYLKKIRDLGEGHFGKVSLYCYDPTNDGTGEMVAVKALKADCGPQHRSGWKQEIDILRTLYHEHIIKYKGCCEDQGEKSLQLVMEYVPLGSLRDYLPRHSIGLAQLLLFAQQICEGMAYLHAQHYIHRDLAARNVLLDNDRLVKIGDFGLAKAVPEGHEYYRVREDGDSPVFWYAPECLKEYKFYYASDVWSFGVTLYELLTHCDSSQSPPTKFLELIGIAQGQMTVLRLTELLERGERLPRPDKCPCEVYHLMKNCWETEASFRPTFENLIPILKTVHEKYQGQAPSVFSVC

[4] = biological target: T4, human JAK3 (a.a. 781-1124) (Homo sapiens, UniProt P52333); experiment: In vitro JAK kinase assay (HTRF, phosphorylation of a biotinylated peptide), JAK3
T4 construct: JAK3 (a.a. 781-1124); His tag (N); made in house; host or cells: insect cells (baculovirus)
T4 sequence (P52333 781-1124): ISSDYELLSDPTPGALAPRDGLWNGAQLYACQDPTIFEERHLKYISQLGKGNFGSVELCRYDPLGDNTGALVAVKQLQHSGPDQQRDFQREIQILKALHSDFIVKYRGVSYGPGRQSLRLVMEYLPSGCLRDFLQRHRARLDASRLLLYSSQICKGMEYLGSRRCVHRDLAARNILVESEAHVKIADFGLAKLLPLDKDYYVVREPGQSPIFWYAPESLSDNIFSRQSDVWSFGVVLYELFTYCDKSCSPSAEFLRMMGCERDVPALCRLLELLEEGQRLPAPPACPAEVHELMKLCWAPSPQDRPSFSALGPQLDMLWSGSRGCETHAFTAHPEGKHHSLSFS
Procedure, shortened: as §1

[5] = compound at a concentration of 500 nM or 1 mM (not specified), cells shown as percentage
[6] = method AA1 (90 μM ATP) or AA2 (1000 μM ATP), not stated per value
[7] = compound at 500 nM or 1 mM, 90 μM ATP
[8] = method AA1 (30 μM ATP) or AA2 (1000 μM ATP), not stated per value
[9] = method AA1 (3 μM ATP) or AA2 (1000 μM ATP), not stated per value
[10] = Table B1, cells without percent sign

Row | SMILES | IC50 ([1]; Table B1) | ALK % of inhibition at a concentration of 500 nM or 1 mM [2, 5] | IC50 ([3]; Table B1) | IC50 (TYK2; Table B1) | IC50 ([4]; Table B1) | IC50 [1, 6] | ALK % of inhibition at a concentration of 500 nM or 1 mM [2, 7] | IC50 [3, 8] | IC50 (TYK2) | IC50 [4, 9] | other results
1 | Clc1cnc2nc1Nc1cccc(c1)CCCNc1cccc(c1)N2 [Example D77, 6-Chloro-2,4,8,17,24-pentaazatetracyclo[16.3.1.1(3,7).1(9,13)]tetracosa-1(22),3(24),4,6,9(23),10,12,18,20-nonaene bis(trifluoroacetate)] |  |  |  |  |  |  |  |  |  |  | IC50 ([1]; Table D1): 8.9 nM; IC50 ([2]; Table D1, 90 μM ATP): 400 nM; IC50 ([3]; Table D1): 3.1 nM; IC50 (TYK2; Table D1): 5.6 nM; IC50 ([4]; Table D1): 11 nM
2 | CC(=O)N1CCC(CC(=O)Nc2ccc3cc2CCc2cncc(c2)Nc2ncc(Cl)c(n2)N3)CC1 [Example A76, 2-(1-Acetylpiperidin-4-yl)-N-[6-chloro-2,4,8,18,22-pentaazatetracyclo[14.3.1.1(3,7).1(9,13)]docosa-1(20),3(22),4,6,9(21),10,12,16,18-nonaen-12-yl]acetamide bis(trifluoroacetate)] |  |  |  |  |  | 2 nM | 21% | 4.1 nM | 3.9 nM | 124 nM | 
3 | O=C(Nc1cc2cc(c1)OCCSc1cccc(c1)Nc1nc(ncc1Cl)N2)c1ccccc1 [Example D57, N-[6-Chloro-17-oxa-14-thia-2,4,8,24-tetraazatetracyclo[16.3.1.1(3,7).1(9,13)]tetracosa-1(22),3(24),4,6,9(23),10,12,18,20-nonaen-20-yl]benzamide trifluoroacetate] |  |  |  |  |  |  |  |  |  |  | IC50 ([1]; Table D1): 11 nM; IC50 ([2]; Table D1, 90 μM ATP): 430 nM; IC50 ([3]; Table D1): 2.3 nM; IC50 (TYK2; Table D1): 7.4 nM; IC50 ([4]; Table D1): 21 nM
4 | O=C(Nc1ccc2cc1CCc1cccc(c1)Nc1ncc(Cl)c(n1)N2)c1ccc2c(c1)OCO2 [Example B71, N-[6-Chloro-2,4,8,22-tetraazatetracyclo[14.3.1.1(3,7).1(9,13)]docosa-1(20), 3(22),4,6,9(21),10,12,16,18-nonaen-12-yl]-1,3-benzodioxole-5-carboxamide trifluoroacetate] | 1.9 nM | 43% | 4.9 nM | 9.6 nM | 24 nM |  |  |  |  |  | 
5 | O=C(Nc1ccc2cc1CCc1cncc(c1)Nc1ncc(Cl)c(n1)N2)N1CCN(c2cnccn2)CC1 [Example B294, N-[6-Chloro-2,4,8,18,22-pentaazatetracyclo[14.3.1.1(3,7).1(9,13)]docosa-1(20),3(22),4,6,9(21),10,12,16,18-nonaen-12-yl]-4-pyrazin-2-ylpiperazine-1-carboxamide tetrakis(trifluoroacetate)] | 19 nM | 54% | 150 nM | 85 nM | > 200 nM |  |  |  |  |  | 
6 | Cn1cncc1C(=O)Nc1cc2cc(c1)Nc1nc(ncc1Cl)Nc1cccc(c1)CC2 [Example B208, N-[6-Chloro-2,4,8,22-tetraazatetracyclo[14.3.1.1(3,7).1(9,13)]docosa-1(20),3(22),4,6,9(21),10,12,16,18-nonaen-11-yl]-1-methyl-1H-imidazole-5-carboxamide trifluoroacetate] | 209 nM |  | 57 nM | 150 nM | 84 nM |  |  |  |  |  | IC50 [2, 10]: > 1000 nM
7 | CN(C)c1ccc(C(=O)Nc2ccc3cc2CCc2cccc(c2)Nc2ncc(Cl)c(n2)N3)cc1 [Example B82, N-[6-Chloro-2,4,8,22-tetraazatetracyclo[14.3.1.1(3,7).1(9,13)]docosa-1(20), 3(22),4,6,9(21),10,12,16,18-nonaen-12-yl]-4-(dimethylamino)benzamide bis(trifluoroacetate)] | 7.9 nM | 39% | 7.6 nM | 14 nM | 44 nM |  |  |  |  |  | 
8 | N#Cc1ccc(N2CCC(CC(=O)Nc3ccc4cc3CCc3cncc(c3)Nc3ncc(Cl)c(n3)N4)CC2)cc1 [Example A221, N-[6-Chloro-2,4,8,18,22-pentaazatetracyclo[14.3.1.1(3,7).1(9,13)]docosa-1(20),3(22),4,6,9(21),10,12,16,18-nonaen-12-yl]-2-[1-(4-cyanophenyl)piperidin-4-yl]acetamide tris(trifluoroacetate)] |  |  |  |  |  | 44 nM | 22% | > 200 nM | > 200 nM | > 200 nM | 

More lines, main results first:

Row | IC50 ([1]; Table B1) | ALK % of inhibition at a concentration of 500 nM or 1 mM [2, 5] | IC50 ([3]; Table B1) | IC50 (TYK2; Table B1) | IC50 ([4]; Table B1) | IC50 [1, 6] | ALK % of inhibition at a concentration of 500 nM or 1 mM [2, 7] | IC50 [3, 8] | IC50 (TYK2) | IC50 [4, 9] | SMILES | other results
9 | 2.9 nM | 19% | 3.3 nM | 9.8 nM | 48 nM |  |  |  |  |  | O=C(Nc1ccc2cc1CCc1cccc(c1)Nc1ncc(Cl)c(n1)N2)NC1CCCCC1 [Example B119, N-[6-Chloro-2,4,8,22-tetraazatetracyclo[14.3.1.1(3,7).1(9,13)]docosa-1(20), 3(22),4,6,9(21),10,12,16,18-nonaen-12-yl]-N′-cyclohexylurea trifluoroacetate] | 
10 |  |  |  |  |  | 3.6 nM | 40% | 22 nM | 30 nM | > 200 nM | O=C(CC1CCN(c2nncs2)CC1)Nc1ccc2cc1CCc1cccc(c1)Nc1ncc(Cl)c(n1)N2 [Example A183, N-[6-Chloro-2,4,8,22-tetraazatetracyclo[14.3.1.1(3,7).1(9,13)]docosa-1(20),3(22),4,6,9(21),10,12,16,18-nonaen-12-yl]-2-[1-(1,3,4-thiadiazol-2-yl)piperidin-4-yl]acetamide bis(trifluoroacetate)] | 
11 |  |  |  |  |  | 8.1 nM | 21% | 4.4 nM | 5.3 nM | 62 nM | CN(C)C(=O)N1CCC(CC(=O)Nc2ccc3cc2CCc2cccc(c2)Nc2ncc(Cl)c(n2)N3)CC1 [Example A80, 4-(2-{[6-Chloro-2,4,8,22-tetraazatetracyclo[14.3.1.1(3,7).1(9,13)]docosa-1(20),3(22),4,6,9(21),10,12,16,18-nonaen-12-yl]amino}-2-oxoethyl)-N,N-dimethylpiperidine-1-carboxamide trifluoroacetate] | 
12 | 39 nM |  | 10 nM | 289 nM | 161 nM |  |  |  |  |  | COc1cccc(CN2CCN(Cc3cc4cc(c3)Nc3nc(ncc3Cl)Nc3cccc(c3)CC4)CC2)c1 [Example B198, 6-Chloro-11-{[4-(3-methoxybenzyl)piperazin-1-yl]methyl}-2,4,8,22-tetraazatetracyclo[14.3.1.1(3,7).1(9,13)]docosa-1(20),3(22),4,6,9(21),10,12,16,18-nonaene tris(trifluoroacetate)] | IC50 [2, 10]: > 10000 nM
13 |  |  |  |  |  | 8 nM | 40% | 89 nM | 105 nM | > 1000 nM | Cc1ccc(N2CCC(CC(=O)Nc3ccc4cc3CCc3cncc(c3)Nc3ncc(Cl)c(n3)N4)CC2)nn1 [Example A173, N-[6-Chloro-2,4,8,18,22-pentaazatetracyclo[14.3.1.1(3,7).1(9,13)]docosa-1(20),3(22),4,6,9(21),10,12,16,18-nonaen-12-yl]-2-[1-(6-methylpyridazin-3-yl)piperidin-4-yl]acetamide tris(trifluoroacetate)] | 
14 | 0.74 nM |  | 1.7 nM | 6.3 nM | 29 nM |  |  |  |  |  | O=C(Nc1ccc2cc1CCc1cccc(c1)Nc1ncc(Cl)c(n1)N2)NC1CCCC1 [Example B88, N-[6-Chloro-2,4,8,22-tetraazatetracyclo[14.3.1.1(3,7).1(9,13)]docosa-1(20), 3(22),4,6,9(21),10,12,16,18-nonaen-12-yl]-N′-cyclopentylurea trifluoroacetate] | IC50 [2, 10]: 930 nM
15 | 0.92 nM | 44% | 4.7 nM | 8.7 nM | 40 nM |  |  |  |  |  | COc1cccc(NC(=O)Nc2ccc3cc2CCc2cccc(c2)Nc2ncc(Cl)c(n2)N3)c1 [Example B100, N-[6-Chloro-2,4,8,22-tetraazatetracyclo[14.3.1.1(3,7).1(9,13)]docosa-1(20), 3(22),4,6,9(21),10,12,16,18-nonaen-12-yl]-N′-(3-methoxyphenyl)urea trifluoroacetate] | 
16 |  |  |  |  |  | 9.1 nM | 0% | 19 nM | 22 nM | 67 nM | N#Cc1ccc(NC(=O)N2CCN(C(=O)COc3ccc4cc3CCc3cccc(c3)Nc3ncc(Cl)c(n3)N4)CC2)cc1 [Example A9, 4-({[6-Chloro-2,4,8,22-tetraazatetracyclo[14.3.1.1(3,7).1(9,13)]docosa-1(20),3(22),4,6,9(21),10,12,16,18-nonaen-12-yl]oxy}acetyl)-N-(4-cyanophenyl)piperazine-1-carboxamide trifluoroacetate] | 
17 | 1.2 nM | 29% | 6.2 nM | 17 nM | 44 nM |  |  |  |  |  | CS(=O)(=O)N1CCC(NC(=O)Nc2ccc3cc2CCc2cccc(c2)Nc2ncc(Cl)c(n2)N3)CC1 [Example B182, N-[6-Chloro-2,4,8,22-tetraazatetracyclo[14.3.1.1(3,7).1(9,13)]docosa-1(20),3(22),4,6,9(21),10,12,16,18-nonaen-12-yl]-N′-[1-(methylsulfonyl)piperidin-4-yl]urea trifluoroacetate] | 
